Test results reported in patent US10568828B2, “Peptide having hair growth-promoting activity and use thereof” (CAREGEN CO., LTD., priority 2016, dated 2020).
Ends that are not written are not given here.

What was measured:
Format in all cases: cell-based
[1] = tested on: Human hair follicle dermal papilla cells; experiment: DPC proliferation assay (MTT); conditions: serum-free medium, 3 days incubation, absorbance 550 nm
Method: Human hair follicle dermal papilla cells were seeded at a density of 2×10^3 cells/well on 96-well plates, followed by incubation overnight. After changing into serum-free medium, the cells were treated with the peptides, followed by incubation for 3 days, and then the wells were treated with 4 mg/ml MTT solution, followed by reaction for 4 hours. The resulting formazan was solubilized with DNSO, and then the absorbance was measured at 550 nm using a microplate reader.

β-catenin = experiment: β-Catenin activation test (Western blot of nuclear protein); conditions: human hair follicle dermal papilla cells, 15 and 30 minutes, Western blot of nuclei
Method: Human hair follicle dermal papilla cells were seeded at a density of 4×10^5 cells/well on 6-well plates, followed by incubation overnight. After changing into serum-free medium, the cells were treated with the peptides, followed by incubation for 15 and 30 minutes, and then the wells were harvested to isolate nuclear and cytoplasmic proteins. Western blotting was performed using β-catenin (Santa Cruz Biotechnology, USA) to compare β-catenin expression patterns in nuclei.

KGF = KGF RT-PCR; conditions: human hair follicle dermal papilla cells, 24 hours
Method: (§1) Human hair follicle dermal papilla cells were seeded at a density of 4×10^5 cells/well on 6-well plates, followed by incubation overnight. After changing into serum-free medium, the cells were treated with the peptides, followed by incubation for 24 hours, and then the wells were harvested to isolate RNA. After RNA quantification, cDNA synthesis was conducted using the cDNA synthesis kit (Intron, Korea), followed by PCR using PCR premix (Intron, Korea) and respective KGF, bFGF, and VEGF primers, and then electrophoresis was performed on 5% agarose gel to compare the mRNA expression levels of the growth factors for each sample treatment conditions.

bFGF = bFGF RT-PCR; conditions: human hair follicle dermal papilla cells, 24 hours
Method: as §1

PI3K = PI3K Western blot; conditions: human hair follicle dermal papilla cells, 15 and 30 minutes
Method: (§2) Human hair follicle dermal papilla cells were seeded at a density of 4×10^5 cells/well on 6-well plates, followed by incubation overnight. After changing into serum-free medium, the cells were treated with the peptides, followed by incubation for 15 and 30 minutes, and then the wells were harvested to prepare cell lysates. Western blotting was performed using PI3K antibodies (Santa Cruz Biotechnology, USA) and phospho-ERK antibody (Cell Signaling Technology, USA) to compare protein expression patterns.

ERK = experiment: p-ERK Western blot; conditions: human hair follicle dermal papilla cells, 15 and 30 minutes
Method: as §2

TGF-β1 = TGF-β1 RT-PCR; conditions: human hair follicle dermal papilla cells, 24 hours
Method: as §1, with “separate” for “isolate”, “TGF-β1” for “respective KGF, bFGF, and VEGF”, “levels” for “levels of the growth factors”

Bcl-2 = Bcl-2 Western blot; conditions: human hair follicle dermal papilla cells, 24 hours
Method: as §2, with “plate,” for “plates,”, “24 hours,” for “15 and 30 minutes,”, “Bcl-2 and Bax” for “PI3K”, “Biotechnology,” for “Biotechnology, USA) and phospho-ERK antibody (Cell Signaling Technology,”

Bax = Bax Western blot; conditions: human hair follicle dermal papilla cells, 24 hours
Method: as §2, with “plate,” for “plates,”, “24 hours,” for “15 and 30 minutes,”, “Bcl-2 and Bax” for “PI3K”, “Biotechnology,” for “Biotechnology, USA) and phospho-ERK antibody (Cell Signaling Technology,”

keratin-14 = experiment: Keratin-14 RT-PCR; conditions: human hair follicle dermal papilla cells, 24 hours
Method: as §1, with “5×10^5” for “4×10^5”, “keratin” for “respective KGF, bFGF, and VEGF”, “levels” for “levels of the growth factors”, “respective” for “each”

VEGF = VEGF RT-PCR; conditions: human hair follicle dermal papilla cells, 24 hours
Method: as §1

MSX2 = MSX2 RT-PCR; conditions: human hair follicle dermal papilla cells, 24 hours
Method: as §1, with “MSX2” for “respective KGF, bFGF, and VEGF”, “levels” for “levels of the growth factors”

Row | Substance | growth of human hair follicle dermal papilla cells [1] | nuclear translocation due to the increase in activity of β-catenin (β-catenin) | mRNA expression of KGF (KGF) | mRNA expression of bFGF (bFGF) | PI3K expression (PI3K) | ERK phosphorylation (ERK) | mRNA expression of TGF-β1 (TGF-β1) | expression of the apoptosis inhibiting protein Bcl-2 (Bcl-2) | expression of the apoptosis-related protein Bax (Bax) | mRNA expression of keratin-14 (keratin-14) | mRNA expression of VEGF (VEGF) | mRNA expression of MSX2 (MSX2)
1 | Arg-Arg-Lys-Ile (RRKI) [SEQ ID NO: 1] | stimulated in a dose-dependent manner | stimulated | increased | increased | increase | increase | inhibited | increase | decrease | increased | – | –
2 | Ile-Tyr-Phe-Tyr (IYFY) [SEQ ID NO: 2] | stimulated in a dose-dependent manner | stimulated | – | – | increase | increase | inhibited | – | – | – | increased | stimulated
3 | KKFIQQVYLAI [SEQ ID NO: 3] | stimulated in a dose-dependent manner | stimulated | – | increased | increase | increase | – | increase | decrease | – | increased | stimulated
